According to patent US5324648A, “Substituted isocoumarins as serine protease inhibitors and anti-inflammatory agents” (Georgia Tech Research Corporation, priority 1992, dated 1994):
Where two headings read alike, the source gives them in different places.

How the values were obtained:
Assay type in all cases: biochemical
complement protein D = complement protein D (Homo sapiens, UniProt P00746); assay: Inactivation rate of complement protein D; details: Table II; pH 7.5, 25° C; [I] 0.05 to 1.29 mM; read-out: kobs/[I]
Chain of complement protein D (P00746 26-253): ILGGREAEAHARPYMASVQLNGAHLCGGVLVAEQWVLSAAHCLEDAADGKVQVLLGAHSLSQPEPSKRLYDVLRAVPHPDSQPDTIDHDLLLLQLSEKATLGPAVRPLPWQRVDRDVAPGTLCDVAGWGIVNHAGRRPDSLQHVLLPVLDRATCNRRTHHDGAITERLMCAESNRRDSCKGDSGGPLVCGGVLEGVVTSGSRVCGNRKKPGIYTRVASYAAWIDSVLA
Experimental: (§1) Inactivation rates of serine proteases by substituted isocoumarins were measured by the incubation method. An aliquot of inhibitor (25 or 50 μl) in Me2 SO was added to a buffered enzyme solution (0.01-2.3 μM) to initiate the inactivation. Aliquots (50 μl) were withdrawn at various intervals and the residual enzymatic activity was measured. Me2 SO concentration in the reaction mixture was 8-12% (v/v). 0.1 Hepes, 0.01M CaCl2, pH 7.5 buffer was utilized for trypsin and coagulation enzymes. 0.1M Hepes, 0.5M NaCl, pH 7.5 was utilized for other serine proteases. The inhibitor concentrations are shown in all the tables. Peptide thioesters or peptide nitroanilides with appropriate sequence were used as substrates for various serine proteases. All peptide thioester hydrolysis rates were measured with assay mixtures containing 4,4'-dithiodipyridine (ε324 =19800M^-1 cm^-1; Grasetti & Murray, Arch. Biochem. Biophys. 119, pp 41-49 (1967)). Peptide 4-nitroanilide nitroanilide hydrolysis was measured at 410 nm (ε410 =8800M^-1 cm^-1; Erlanger et al., Arch. Biochem. Biophys. 95, pp 271-278 (1961)). First order inactivation rate constant (kobs) were obtained from plots of ln (vt /vo) vs time, and the correlation coefficients were greater than 0.98.
^a Conditions were 0.1M Hepes, 0.5M NaCl, pH 7.5, 8-10% Me2 SO
and 25° C. Inactivation rates were measured by incubation method.
Enzyme concentrations were as follows: protein D, 1-9 μM; C2, 0.7-1
μM; B, 1.8 μM; Bb, 0.3-0.8 μM; Cl^- s, 0.07 μM; Cl^-

[1] = target: recombinant human tissue plasminogen activator (Homo sapiens, UniProt P00750); assay: Inactivation rate of recombinant human tissue plasminogen activator; details: pH 7.5, 25° C, read-out: kobs/[I]
Chain of recombinant human tissue plasminogen activator (P00750 36-562): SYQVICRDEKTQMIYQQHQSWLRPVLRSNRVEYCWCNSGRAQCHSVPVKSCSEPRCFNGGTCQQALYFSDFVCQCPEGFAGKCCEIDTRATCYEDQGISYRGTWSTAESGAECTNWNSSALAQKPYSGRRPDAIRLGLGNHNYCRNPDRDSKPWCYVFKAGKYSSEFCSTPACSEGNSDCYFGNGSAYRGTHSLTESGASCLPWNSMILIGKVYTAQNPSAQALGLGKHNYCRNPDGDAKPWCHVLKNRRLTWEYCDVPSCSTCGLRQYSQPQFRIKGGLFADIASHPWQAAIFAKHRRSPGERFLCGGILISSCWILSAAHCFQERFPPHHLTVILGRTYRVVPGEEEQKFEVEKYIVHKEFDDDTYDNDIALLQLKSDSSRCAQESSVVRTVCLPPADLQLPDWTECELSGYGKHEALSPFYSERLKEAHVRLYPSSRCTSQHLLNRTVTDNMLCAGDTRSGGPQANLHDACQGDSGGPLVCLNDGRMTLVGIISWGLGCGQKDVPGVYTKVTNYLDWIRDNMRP
Outline: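 Incubation method: enzyme mixed with inhibitor in Me2SO (8–12% v/v) in 0.1M Hepes, 0.5M NaCl, pH 7.5; aliquots withdrawn over time for residual activity with ZArg-SBzl (0.07 mM) plus 4,4'-dithiodipyridine (0.33 mM). kobs taken from ln(vt/vo) versus time plots.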

mouse granzyme A = target: T1, mouse granzyme A (Mus musculus, UniProt P11032); assay: Inactivation rate of mouse granzyme A; details: Table VII; pH 7.5, 25° C; [I] 0.4 to 45 μM; read-out: kobs/[I]
T1 construct: mouse cytotoxic lymphocyte granzyme A; endogenous in cells; host or cells: mouse cytotoxic lymphocytes
T1 sequence (P11032 29-260): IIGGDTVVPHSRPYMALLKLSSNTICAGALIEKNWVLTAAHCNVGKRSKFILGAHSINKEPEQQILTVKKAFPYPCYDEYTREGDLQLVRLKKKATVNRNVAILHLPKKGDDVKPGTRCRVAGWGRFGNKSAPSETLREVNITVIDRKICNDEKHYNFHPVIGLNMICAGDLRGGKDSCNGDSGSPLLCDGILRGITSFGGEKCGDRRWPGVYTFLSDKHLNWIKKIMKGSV
Experimental: as §1
^a Inactivation rates were measured at 0.1M Hepes, 0.01M CaCl2,
pH 7.5, 8% Me2 SO and 25° C. by incubation method. ZArg-SBzl
(74-85 μM) was used as the substrate to monitor the residual enzymatic

human factor XIIa = target: T2, human factor XIIa (Homo sapiens, UniProt P00748); assay: Inactivation rate of human factor XIIa; details: pH 7.5, 25° C, read-out: kobs/[I]
T2 construct: human factor XIIa
T2 sequence (P00748 373-615 limits assumed): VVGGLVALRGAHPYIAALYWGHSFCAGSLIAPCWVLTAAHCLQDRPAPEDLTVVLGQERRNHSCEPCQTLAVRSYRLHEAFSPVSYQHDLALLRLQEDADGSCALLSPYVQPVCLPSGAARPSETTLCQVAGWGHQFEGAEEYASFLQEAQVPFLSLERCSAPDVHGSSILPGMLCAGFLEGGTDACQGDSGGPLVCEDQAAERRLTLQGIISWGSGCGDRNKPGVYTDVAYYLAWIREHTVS
T2 sequence (P00748 20-372 partner limits assumed): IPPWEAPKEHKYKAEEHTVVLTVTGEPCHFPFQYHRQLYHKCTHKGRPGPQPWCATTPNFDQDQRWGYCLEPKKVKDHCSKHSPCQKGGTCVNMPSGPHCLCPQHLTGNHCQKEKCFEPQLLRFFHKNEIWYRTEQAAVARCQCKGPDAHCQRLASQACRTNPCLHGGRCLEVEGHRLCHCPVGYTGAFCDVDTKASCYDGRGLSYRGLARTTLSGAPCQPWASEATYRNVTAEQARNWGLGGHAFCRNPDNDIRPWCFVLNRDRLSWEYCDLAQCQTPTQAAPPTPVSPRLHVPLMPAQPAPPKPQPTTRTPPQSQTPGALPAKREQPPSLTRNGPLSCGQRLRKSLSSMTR
Outline: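 First-order kobs came from ln(vt/vo)-versus-time plots of remaining activity, measured on timed aliquots with thioester or nitroanilide substrates. Enzyme at 0.01-2.3 μM was preincubated with inhibitor at 25° C in pH 7.5 Hepes/0.01M CaCl2 buffer containing 8-12% Me2SO.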

human plasmin = target: T3, human plasmin (Homo sapiens, UniProt P00747); assay: Inactivation rate of human plasmin; details: read-out: kobs/[I]
T3 construct: human plasmin; from tissue; host or cells: human plasma
T3 sequence (P00747 581-810 limits assumed): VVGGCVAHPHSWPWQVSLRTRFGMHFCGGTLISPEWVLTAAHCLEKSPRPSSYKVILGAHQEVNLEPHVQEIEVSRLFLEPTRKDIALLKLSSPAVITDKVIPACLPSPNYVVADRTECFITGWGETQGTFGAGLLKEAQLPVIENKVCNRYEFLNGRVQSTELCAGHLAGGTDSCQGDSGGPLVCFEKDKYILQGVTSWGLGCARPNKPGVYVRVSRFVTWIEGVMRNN
T3 sequence (P00747 97-580 partner limits assumed): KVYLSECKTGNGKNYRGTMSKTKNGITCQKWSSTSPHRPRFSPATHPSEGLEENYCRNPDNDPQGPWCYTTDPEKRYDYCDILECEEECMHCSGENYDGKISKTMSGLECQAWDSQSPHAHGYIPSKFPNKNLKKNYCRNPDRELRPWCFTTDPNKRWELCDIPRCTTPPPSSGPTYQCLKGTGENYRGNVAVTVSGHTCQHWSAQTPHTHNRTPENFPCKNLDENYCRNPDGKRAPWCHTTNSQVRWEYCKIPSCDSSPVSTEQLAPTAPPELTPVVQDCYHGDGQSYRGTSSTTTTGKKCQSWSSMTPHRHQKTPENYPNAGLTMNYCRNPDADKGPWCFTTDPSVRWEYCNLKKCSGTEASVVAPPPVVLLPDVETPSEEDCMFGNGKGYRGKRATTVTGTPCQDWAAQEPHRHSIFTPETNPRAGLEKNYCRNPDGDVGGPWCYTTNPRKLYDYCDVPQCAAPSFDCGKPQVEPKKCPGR

[2] = pH 7.5, Table VI, [I] 7 to 44 μM
[3] = Table VI, pH 7.5, 25° C, [I] 4 to 330 μM
[4] = pH 7.5, Table IX, [I] 3.5-5.0 μM

| Compound | kinact/KI (complement protein D) [M⁻¹ s⁻¹] | kinact/KI [1, 2] [M⁻¹ s⁻¹] | kinact/KI (mouse granzyme A) [M⁻¹ s⁻¹] | kinact/KI (human factor XIIa; Table I, [I] 3 to 330 μM) [M⁻¹ s⁻¹] | kinact/KI (human plasmin; [3]) [M⁻¹ s⁻¹] | kinact/KI [1, 4] [M⁻¹ s⁻¹] | kinact/KI (human factor XIIa; Table VIII, [I] 3.6-4.9 μM) [M⁻¹ s⁻¹] | kinact/KI (human plasmin; Table IX, 0.01M CaCl2, pH 7.5, 25° C, [I] 8.3-41 μM) [M⁻¹ s⁻¹] |
| --- | --- | --- | --- | --- | --- | --- | --- | --- |
| O=c1oc(Cl)c(Cl)c2ccccc12 [3,4-dichloroisocoumarin, reference compound] | 192 | 73 | 50 | – | – | – | – | – |
| N=C(N)SCCOc1oc(=O)c2ccccc2c1Cl [3-(2-isothiureidoethoxy)-4-chloroisocoumarin] | 61 | – | – | 39000 | – | – | – | – |
| NCCCOc1oc(=O)c2ccccc2c1Cl [3-(3-aminopropoxy)-4-chloroisocoumarin] | – | 94 | 770 | 190 | 770 | – | – | – |
| N=C(N)SCCCOc1oc(=O)c2ccccc2c1Cl [3-(3-isothiureidopropoxy)-4-chloroisocoumarin] | 145 | 4690 | 17500 | 27000 | – | – | – | – |
| N=C(N)SCCCOc1oc(=O)c2cc(N)ccc2c1Cl [7-amino-4-chloro-3-(3-isothiureidopropoxy)isocoumarin] | 55 | 5690 | 3000 | 6200 | 4340 | 13000 | – | – |
| CCOc1oc(=O)c2cc(NC(=N)N)ccc2c1Cl [7-guanidino-3-ethoxy-4-chloroisocoumarin, 7-guanidino-4-chloro-3-ethoxyisocoumarin] | 193 | 7720 | 26200 | 22000 | 12300 | – | – | – |
| COc1cc2ccc(NC(=N)N)cc2c(=O)o1 [7-guanidino-3-methoxyisocoumarin] | – | – | – | 520 | 320 | – | – | – |
| N=C(N)Nc1ccc2c(Cl)c(OCCc3ccccc3)oc(=O)c2c1 [7-guanidino-4-chloro-3-(2-phenylethoxy)isocoumarin] | 92 | 6780 | 6400 | 26000 | 4140 | – | – | – |
| COc1oc(=O)c2cc(NC(=N)N)ccc2c1Cl [7-guanidino-4-chloro-3-methoxyisocoumarin] | 252 | 4420 | 15000 | 20000 | 3500 | – | – | – |
| N=C(N)SCCOc1oc(=O)c2cc(NC(=O)Nc3ccccc3)ccc2c1Cl [PhNHCONH-CiTEtOIC, 7-(phenylcarbamoylamino)-4-chloro-3-(2-isothiureidoethoxy)isocoumarin] | – | – | – | – | – | 16000 | 50000 | 32000 |
